Data reported in patent US20230355596A1, “COMPOSITIONS AND METHODS OF USING NMDAR INHIBITORS AND KINASE INHIBITORS TO TREAT LIVER CANCER” (The University of Hong Kong, priority 2022, published 2023).
Read-outs that look alike come from different tables or passages of the source.

Columns and labels:
[1] = tested on: MHCC97L cells; test: MTT cell viability assay and drug interaction analysis; assay type: cell-based, human; settings: single drug
[2] = tested on: MHCC97L cells; test: Cell cycle analysis (PI staining, flow cytometry); assay type: cell-based, human; settings: 10 μM ifenprodil, 5 μM sorafenib, 24 hours
Text: Cells transduced with florescent proteins were trypsinized, washed with PBS, and resuspended in PBS containing 2% FBS. Resuspended cells were subjected to flow cytometry analysis using the BD FACSCantoII, ACEA NovoCyte Quanteon (Agilent) or BD LSR Fortessa Analyzer (BD Biosciences). The signal of TurboRFP and EGFP was detected by a 561 nm yellow-green laser (610/20 nm) and a 488 nm blue laser (530/30 nm), respectively. For cell cycle analysis, cells harvested by trypsinization were washed by PBS. Cell pellets were fixed by ice-cold 70% ethanol at 4° C. for 1 hour. The fixed cells were rehydrated by replacing ethanol with PBS for 15 minutes at room temperature for cell cycle analysis. To remove RNAs, 5 μl RNase A (10 mg/ml) per 500 μl PBS was added and incubated at 37° C. for 15 minutes. The DNA contents were stained by propidium iodide (ThermoFisher Scientific) for 1 hour at room temperature in dark. Signal was detected by a 561 nm yellow-green laser (581/15 nm). FlowJo software (v10.5.3, Becton Dickinson) was used for data analysis. For cell sorting, cells were collected following the normal trypsinization and PBS washing steps. Cell pellets were resuspended in PBS with 2% FBS and 2X antibiotic-antimycotic. […] Signal was detected by a 488 nm blue laser (530/40 nm). ˜500-fold more cells were sorted into culture medium supplemented with 10% FBS and 2X antibiotic-antimycotic. […]

[3] = tested on: HCC organoids; test: Limiting dilution spheroid formation assay on organoids; assay type: cell-based, human; settings: 20 μM ifenprodil and 8 μM sorafenib, 3 days
Experimental: Resuspended cells were cultured in DMEM/F12 (ThermoFisher Scientific) medium containing 0.25% methylcellulose (Sigma-Aldrich), 20 ng/ml EGF (Sigma-Aldrich), 10 ng/ml FGF (Sigma-Aldrich), 4 μg/ml insulin (Sigma-Aldrich), 1% B27 (ThermoFisher Scientific), and 1% antibiotic-antimycotic (ThermoFisher Scientific). Serial dilution of cells (5, 10, 20, 50, and 100 cells from the HCC cell lines and cells dissociated from the xenografts; 10, 20, 50, 100, 200 cells from the HCC organoids) were seeded onto a 96-well plate in 6 replicates for each dilution. Fresh medium was replenished every two days. The number of wells with spheroids formed were counted after a 10-day culture. The stem cell frequency was calculated using ELDA: Extreme Limiting Dilution Analysis (internet site bioinf.wehi.edu.au/software/elda/). In the data plots, the y-axis “fraction nonresponding” refers to the log proportion of number of cultures not responding to form spheroids, while the x-axis “dose (number of cells)” refers to the number of cells used in each culture. The slope of the line is the log-active cell fraction, representing the estimated active cell frequency in forming spheroids, and the dotted lines gives the 95% confidence interval.

[4] = tested on: NMDAR subunits; settings: cited from earlier work
[5] = tested on: HCC patients; settings: cited from earlier work
[6] = tested on: HCC patients; settings: Asian study; cited from earlier work
[7] = tested on: HCC patients; settings: phase III, first line; cited from earlier work

Row | SMILES | HCC growth, NMDAR inhibitor alone [1] | G1-phase cell-cycle arrest [2] | ability of HCC organoids to assemble tumor spheroids [3] | NMDAR subunit selectivity [4] | toxicity / safety as therapeutic agent [4] | toxicity / safety as therapeutic agent ([4]; listed as IFEN) | median overall survival ([5]; SHARP trial) | tolerability ([5]; phase III trials) | median overall survival [6] | Median survival [7] | discontinuation rate [7]
1 | CC(C(O)c1ccc(O)cc1)N1CCC(Cc2ccccc2)CC1 (stereo not shown) [Ifenprodil, ifenprodil] | did not significantly suppress | not with either IFEN or SOR alone | not either drug alone | more selective for NMDAR1/NMDAR2B subunits | tested safe in human | known safety history | – | – | – | – | –
2 | CNC(=O)c1cc(Oc2ccc(NC(=O)Nc3ccc(Cl)c(C(F)(F)F)c3)cc2)ccn1 [Sorafenib, sorafenib] | – | not with either IFEN or SOR alone | not either drug alone | – | – | – | 10.7 months | generally well tolerated | 6.5 months | 9.9 months | 33%
